The compounds below were run against human APJ receptor (Homo sapiens (Human), UniProt P35414) (assay: biochemical). Settings: [35S]GTPγS binding, CHO membranes expressing human APJ receptor; read-out: Activity hAPJ SPA EC50 IP.
Sequence of human APJ receptor (P35414 whole entry): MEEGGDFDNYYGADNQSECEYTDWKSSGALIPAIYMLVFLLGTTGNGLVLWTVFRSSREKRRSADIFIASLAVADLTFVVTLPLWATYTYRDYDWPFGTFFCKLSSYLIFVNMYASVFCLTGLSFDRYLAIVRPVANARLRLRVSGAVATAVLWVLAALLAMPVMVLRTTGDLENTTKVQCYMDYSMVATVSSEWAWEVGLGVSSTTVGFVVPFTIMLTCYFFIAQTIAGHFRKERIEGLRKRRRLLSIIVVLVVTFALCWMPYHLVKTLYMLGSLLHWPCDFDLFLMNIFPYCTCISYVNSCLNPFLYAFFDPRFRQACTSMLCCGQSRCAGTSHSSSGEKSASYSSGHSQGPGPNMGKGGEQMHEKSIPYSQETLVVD
Assay type: biochemical
How it was run: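 Membranes of a stable CHO line carrying human APJ (pFLAG-CMV-3) were used in a GTPγS binding format; buffer GDP, MgCl2 and NaCl were optimized, and plates were read after 90 min at RT.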
`Cn1ccc(-c2nnc(NS(=O)(=O)[C@@H]3C[C@@H](O)CN(c4ncc(F)cn4)C3)n2-c2c(F)cccc2F)n1` (single isomer, unassigned) [Example 300.0, (3R,5R)-N-(4-(2,6-difluorophenyl)-5-(1-methyl-1H-pyrazol-3-yl)-4H-1,2,4-triazol-3-yl)-1-(5-fluoro-2-pyrimidinyl)-5-hydroxy-3-piperidinesulfonamide or (3S,5R)-N-(4-(2,6-difluorophenyl)-5-(1-methyl-1H-pyrazol-3-yl)-4H-1,2,4-triazol-3-yl)-1-(5-fluoro-2-pyrimidinyl)-5-hydroxy-3-piperidinesulfonamide] gave an EC50 of 55 nM. Work on `CCn1ccc(-c2nnc(NS(=O)(=O)[C@@H](C)[C@H](C)c3ncc(F)cn3)n2-c2c(OC)cccc2OC)n1` [Example 191.0, (2S,3R)-N-(4-(2,6-dimethoxyphenyl)-5-(1-ethyl-1H-pyrazol-3-yl)-4H-1,2,4-triazol-3-yl)-3-(5-fluoro-2-pyrimidinyl)-2-butanesulfonamide] yielded an EC50 of 0.63 nM. Work on `COc1ncnc(OC)c1-n1c(NS(=O)(=O)[C@@H](C)[C@H](C)c2ccc(Cl)cn2)nnc1-c1ccn(C)n1` [Example 534.0, (2S,3R)-3-(5-chloro-2-pyridinyl)-N-(4-(4,6-dimethoxy-5-pyrimidinyl)-5-(1-methyl-1H-pyrazol-3-yl)-4H-1,2,4-triazol-3-yl)-2-butanesulfonamide] yielded an EC50 of 0.93 nM. `CCc1nc(-c2nnc(NS(=O)(=O)CCc3ccc(F)cc3C#N)n2-c2c(OC)cccc2OC)cs1` [Example 154.0, 2-(2-cyano-4-fluorophenyl)-N-(4-(2,6-dimethoxyphenyl)-5-(2-ethylthiazol-4-yl)-4H-1,2,4-triazol-3-yl)ethanesulfonamide] showed an EC50 of 62 nM. “(2R,3S)-N-(4-(2,6-dimethoxyphenyl)-5-(1-methyl-1H-pyrazol-3-yl)-4H-1,2,4-triazol-3-yl)-3-(5-methyl-2-pyrazinyl)-2-butanesulfonamide and (2S,3R)-N-(4-(2,6-dimethoxyphenyl)-5-(1-methyl-1H-pyrazol-3-yl)-4H-1,2,4-triazol-3-yl)-3-(5-methyl-2-pyrazinyl)-2-butanesulfonamide [Example 279.0]” was tested, and the EC50 was 2.8 nM. Compound `COc1cccc(OC)c1-n1c(NS(=O)(=O)[C@H](C)Cc2ncc(F)cn2)nnc1-c1nc(C)cs1` [Example 100.0] has an EC50 of 3 nM. `COc1cccc(OC)c1-n1c(NS(=O)(=O)C[C@H](OC)c2ccc(Cl)cc2S(C)(=O)=O)nnc1-c1ccn(C)n1` (single isomer, unassigned) [Example 381.0, (R)-2-(4-Chloro-2-(methylsulfonyl)phenyl)-N-(4-(2,6-dimethoxyphenyl)-5-(1-methyl-1H-pyrazol-3-yl)-4H-1,2,4-triazol-3-yl)-2-methoxyethanesulfonamide or (S)-2-(4-chloro-2-(methylsulfonyl)phenyl)-N-(4-(2,6-dimethoxyphenyl)-5-(1-methyl-1H-pyrazol-3-yl)-4H-1,2,4-triazol-3-yl)-2-methoxyethanesulfonamide] was tested, and the EC50 was 0.29 nM. `CC(C)O[C@@H](c1ncc(Cl)cn1)[C@H](C)S(=O)(=O)Nc1nnc(-c2ccn(C)n2)n1C1CC1` [Example 532.0, (1S,2S)-1-(5-chloro-2-pyrimidinyl)-N-(4-cyclopropyl-5-(1-methyl-1H-pyrazol-3-yl)-4H-1,2,4-triazol-3-yl)-1-(2-propanyloxy)-2-propanesulfonamide] was tested, and the EC50 was 22 nM. Work on `COc1cccc(OC)c1-n1c(NS(=O)(=O)[C@H](C)Cc2ncc(F)cn2)nnc1-c1conc1C` (single isomer, unassigned) [Example 65.0, (R)-N-(4-(2,6-dimethoxyphenyl)-5-(3-methylisoxazol-4-yl)-4H-1,2,4-triazol-3-yl)-1-(5-fluoropyrimidin-2-yl)propane-2-sulfonamide or (S)-N-(4-(2,6-dimethoxyphenyl)-5-(3-methylisoxazol-4-yl)-4H-1,2,4-triazol-3-yl)-1-(5-fluoropyrimidin-2-yl)propane-2-sulfonamide] yielded an EC50 of 76 nM.

Reference: patent US11046680B1, “Heteroaryl-substituted triazoles as APJ receptor agonists” (priority 2016, dated 2021)
